According to ChEMBL document CHEMBL1649556, “Lack of antimicrobial activity by the antiretroviral drug nevirapine against common bacterial pathogens” (2009):
Converted amounts (≈) assume the structure as drawn. The source made the active and inactive calls. The calls are words filed in the database; no cut-off is given here.

Columns and labels:
[1] = test system: Human immunodeficiency virus; assay: Antiviral activity against HIV infected in human PBMC assessed as decrease in viral p24 antigen production at 0.25 to 4 ug/ml after 14 days by ELISA; type: functional, organism-based
Streptococcus pneumoniae [2] = assay: Antibacterial activity against Streptococcus pneumoniae ATCC 49619 after 18 to 24 hrs by agar dilution method; type: functional
Haemophilus influenzae [3] = assay: Antibacterial activity against Haemophilus influenzae […] after 18 to 24 hrs by agar dilution method; type: functional
Escherichia coli [4] = assay: Antibacterial activity against Escherichia coli ATCC 25922 after 18 to 24 hrs by agar dilution method; type: functional
Staphylococcus aureus [5] = assay: Antibacterial activity against Staphylococcus aureus ATCC 29213 after 18 to 24 hrs by agar dilution method; type: functional
Shigella sonnei = assay: Antibacterial activity against Shigella sonnei […] after 18 to 24 hrs by agar dilution method; type: functional
[6] = Antibacterial activity against Salmonella group B ATCC 31194 after 18 to 24 hrs by agar dilution method; type: functional; settings: Salmonella sp. 'group B'
Streptococcus pneumoniae [7] = assay: Antibacterial activity against Streptococcus pneumoniae after 18 to 24 hrs by agar dilution method; type: functional
Haemophilus influenzae [8] = assay: Antibacterial activity against Haemophilus influenzae after 18 to 24 hrs by agar dilution method; type: functional
Escherichia coli [9] = assay: Antibacterial activity against Escherichia coli after 18 to 24 hrs by agar dilution method; type: functional
Staphylococcus aureus [10] = assay: Antibacterial activity against Staphylococcus aureus after 18 to 24 hrs by agar dilution method; type: functional
Salmonella = assay: Antibacterial activity against Salmonella group D after 18 to 24 hrs by agar dilution method; type: functional
Shigella flexneri = assay: Antibacterial activity against Shigella flexneri group B after 18 to 24 hrs by agar dilution method; type: functional

Question: For `Cc1ccnc2c1NC(=O)c1cccnc1N2C1CC1` [NEVIRAPINE], which inhibition [1] is on record?
Answer: Its inhibition is “Active”.

Question: And the MIC (Streptococcus pneumoniae [2])?
Answer: Its MIC is 4 µg/mL (≈ 15 µM).

Question: And the MIC (Haemophilus influenzae [3])?
Answer: The MIC was 4 µg/mL (≈ 15 µM).

Question: What about the MIC (Escherichia coli [4]) of the same molecule?
Answer: Its MIC is 4 µg/mL (≈ 15 µM).

Question: What about the MIC (Staphylococcus aureus [5]) of the same molecule?
Answer: The MIC was 4 µg/mL (≈ 15 µM).

Question: What about the MIC (Shigella sonnei) of the same molecule?
Answer: Its MIC is 4 µg/mL (≈ 15 µM).

Question: What about the MIC [6] of the same molecule?
Answer: Its MIC is 4 µg/mL (≈ 15 µM).

Question: And the MIC (Streptococcus pneumoniae [7])?
Answer: Its MIC is 4 µg/mL (≈ 15 µM).

Question: And the MIC (Haemophilus influenzae [8])?
Answer: Its MIC is 4 µg/mL (≈ 15 µM).

Question: And the MIC (Escherichia coli [9])?
Answer: The MIC was 4 µg/mL (≈ 15 µM).

Question: What about the MIC (Staphylococcus aureus [10]) of the same molecule?
Answer: The MIC was 4 µg/mL (≈ 15 µM).

Question: And the MIC (Salmonella)?
Answer: Its MIC is 4 µg/mL (≈ 15 µM).

Question: What about the MIC (Shigella flexneri) of the same molecule?
Answer: The MIC was 4 µg/mL (≈ 15 µM).
